Marks after values point to notes of the source that are not given here.
Legend:
human TGR5 = target: T1, human TGR5 (Homo sapiens, UniProt Q8TDU6); experiment: Cell-based TGR5 assay (cAMP generation, HTRF); details: HEK293 cells stably transfected with human TGR5; cAMP by HTRF; 30 minutes at 37° C.; read-out: pEC50 Human TGR5 (converted)
T1 construct: expressed in transfected cells; host or cells: HEK293
T1 sequence (Q8TDU6 1-330): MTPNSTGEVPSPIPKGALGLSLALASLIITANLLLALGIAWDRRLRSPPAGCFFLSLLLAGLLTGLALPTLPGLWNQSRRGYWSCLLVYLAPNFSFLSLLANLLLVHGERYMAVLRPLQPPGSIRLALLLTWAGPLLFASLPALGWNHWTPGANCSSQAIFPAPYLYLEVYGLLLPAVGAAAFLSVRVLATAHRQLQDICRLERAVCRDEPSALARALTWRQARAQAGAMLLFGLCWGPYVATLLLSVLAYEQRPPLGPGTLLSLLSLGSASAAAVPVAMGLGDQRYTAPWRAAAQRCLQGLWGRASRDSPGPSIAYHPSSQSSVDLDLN
Method in brief: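 Read-out was HTRF detection of cAMP, converted to concentration via a standard curve and fitted (3-parameter logistic) for pEC50 and maximal response. Agonist stimulation used HEK293 cells stably transfected with human TGR5, incubated 30 min at 37° C in IBMX-containing buffer at 0.05 nM to 10 μM compound.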

[1] = tested on: mice with 5-FU-induced diarrhea; experiment: Chemotherapy-induced diarrhea model (5-FU), fecal form score; format: in vivo, CD-1 female mice; details: 5-FU 60 mg/kg IP days 5-11; I-388 30 mg/kg PO BID, teduglutide 0.4 mg/kg SQ BID, days 1-13; FFS days 11-13 summed; FIG. 1
Procedure: Four groups of adult CD-1 female mice on regular chow were dosed with the following BID starting on Day 1: 2 groups, vehicle (10% hydroxypropyl-β-cyclodextrin in PBS; PO; 5 mL/kg); 1 group, Compound I-388 at 30 mg/kg in vehicle (PO; 5 mL/kg); and 1 group, teduglutide 0.4 mg/kg (American Peptide, Sunnyvale, CA; reconstituted in PBS; SQ; 10 mL/kg) 0.4 mg/kg SQ. On Days 5-11, the groups of mice were also given QD IP injections (5 mL/kg) of the following treatments: first vehicle group, PBS and remaining groups, 5-fluorouracil (5-FU) 60 mg/kg (Fresenius Kabi USA, Lake Zurich, IL) diluted in PBS to induce mucositis with diarrhea. Body weight was measured throughout the study and fecal form was scored on Day 11-13 of the study according to the following scale: 0, normal stool; 1, slightly wet and soft stool; 2, wet and unformed stool with moderate perianal staining of the coat; 3, watery stool with severe perianal staining of the coat.
All mice were dosed on day 1-13 with vehicle, with 0.4 mg/kg of teduglutide, or with 30 mg/kg of compound I-388 (vehicle and Cmpd. I-388: PO, […] and teduglutide: SQ, 10 mL/kg). PBS or 5-FU at 60 mg/kg (used to induce mucositis and diarrhea) were administered interperionally (IP; 5 mL/kg) on days 5-11.

[2] = tested on: Western diet (WD)-fed mice; experiment: Mouse model of NAFLD and mild diabetes, Western diet (WD)-fed mice: glucose, insulin, liver lipids, GLP levels; format: in vivo, C57BL/6 male mice; details: Western diet, liraglutide 0.4 mg/kg BID SQ, I-389 30 mg/kg BID PO, linagliptin 10 mg/kg QD PO, mean±SEM
Procedure: Seven week old C57BL/6 male mice were housed 5/cage. Two cages of mice were put on normal chow (Harlan Teklad 2018), and the remaining cages of mice were put on WD (Harlan Teklad, TD.88137, […]/0.2% cholesterol) to induce NAFLD. After 10 weeks, mice were weighed and fasted for 4 h. Blood was collected to measure fasting glucose levels, processed to plasma for measurement of insulin, triglycerides and total cholesterol. This process was repeated on Day 29 of treatment. Based on body weight and fasted glucose and insulin levels, mice were divided into 5 treatment groups (n=10/group), Table 20. […] Mice were weighed twice weekly throughout the study. On the last day of the study (Day 30, 8 hours after food removal), mice were euthanized. Blood was collected in tubes with inhibitors to block DPP-4 activity and processed to plasma for measurement of liver enzymes and GLP levels using an Ace Alera clinical analyzer and the Multi-Array Assay System from Meso Scale Discovery, respectively. The entire liver was collected, weighed, and a sample was taken and weighed for measurement of triglycerides and total cholesterol.
Data for each group are presented as mean±SEM. Statistical analyses were performed using one-way ANOVA followed by Holm-Sidak's multiple comparisons test. For GLP levels, <statistical significance compared to vehicle (WD) is marked as *, P<0.05; **, P<0.01, ***, P<0.001, and ****, P<0.0001; of linagliptin (WD) versus I-389 alone (WD) or linaglptin+I-389 (WD) is marked as †, P<0.05; ††, P<0.01, of †††, P<0.001, and ††††, P<0.0001; and of I-389 (WD) versus linagliptin (WD)+I-389 (WD) is marked as ^, P<0.05; ^ ^P<0.01, ^ ^^P, P<0.001, and ^ ^^^, P<0.0001. For the remaining parameters, statistical significance compared to vehicle (WD) is marked as *, P<0.05; **, P<0.01, ***, P<0.001, and ****, P<0.0001.

[3] = tested on: mice with DSS-induced colitis; experiment: Inflammatory bowel disease model (DSS colitis): DAI, colon length, cytokines, histology; format: in vivo, C57BL/6 female mice; details: I-389 30 mg/kg PO BID
Procedure: Six week old C57BL/6 female, were acclimated for 2 days. Starting on Day −2, 5 groups of mice were dosed PO (mL/kg) BID with 1) vehicle (10% HPCD); 2) vehicle; 3) vehicle; mice had sitagliptin (3.6 g/L for a dose of ˜800 mg/kg/day) added to their drinking water; 4) I-389 30 mg/kg; or 5) I-389 30 mg/kg; mice had sitagliptin (3.6 g/L for a dose of 800 mg/kg/day) added to their drinking water. On Day 0, mice in groups 2-5 were put on drinking water containing 1.5% DSS to induce colitis. Note: Groups 3 & 5 were on drinking water containing both DSS and sitagliptin. On Day 7, mice were taken off of DSS treatment and received either regular drinking water (Groups 1, 2, and 4) or drinking water with sitagliptin (Groups 3 and 5). On Day 8, mice were transferred to a separate container for DAI scoring which consists of evaluation of stool consistency, blood in stool, incidence of rectal prolapse, and body condition according to the scoring system shown in Table 19. The DAI score is a summation of each individual score in each category (columns) for a single animal. Mice were euthanized, blood was collected for plasma, colons were removed for length measurement, cytokine analysis, and histological staining, pathological analysis and scoring of colonic tissue damage. Colonic tissue damage was scored according to observed microscopic changes based on the following schema: 0=no significant change, 1=minimal, 2=mild, 3=moderate and 4=severe. Parametric data for each group are presented as mean±SEM. Statistical analysis was performed using one-way ANOVA followed by Holm-Sidak's multiple comparisons test. Statistical significance versus DSS/vehicle is marked as *, P<0.05; **, P<0.01, ***, P<0.001, and ****, P<0.0001. Statistical significance versus DSS/I-389 is marked as †††, P<0.001. Non-parametric data for each group is shown as a dot blot with median (line). Statistical analysis was performed using Kruskal-Wallis test followed by Dunn's test to detect differences between groups.

SMILES | EC50 (human TGR5) [nM] | also measured
O=C(NCCCCNS(=O)(=O)c1ccc(Cl)c(COC2(c3cnccc3-c3ccccc3OC3CC3)CC2)c1)[C@@H](O)[C@@H](O)[C@H](O)[C@@H](O)CO [Compound I-388, (2S,3S,4R,5S)-N-(4-[[4-chloro-3-([1-[4-(2-cyclopropoxyphenyl)pyridin-3-yl]cyclopropoxy]methyl)benzene]sulfonamido]butyl)-2,3,4,5,6-pentahydroxyhexanamide] | < 100 | cumulative fecal form score (FFS) [1]: significantly improved
CN(CCCCNC(=O)N[C@@H](CO)[C@@H](O)[C@@H](O)[C@H](O)CO)S(=O)(=O)c1ccc(Cl)c(COC2(c3cnccc3-c3ccccc3OC3CC3)CC2)c1 [Compound I-776, 4-chloro-3-((1-(4-(2-cyclopropoxyphenyl)pyridin-3-yl)cyclopropoxy)methyl)-N-methyl-N-(4-(3-((2S,3R,4R,5R)-1,3,4,5,6-pentahydroxyhexan-2-yl)ureido)butyl)benzenesulfonamide] | < 100 | 
CN1C[C@@H]2C[C@H]1CN2S(=O)(=O)c1ccc(Cl)c(COC2(c3cnccc3-c3ccccc3OC3CC3)CC2)c1 [Compound I-777, (1S,4S)-2-((4-chloro-3-((1-(4-(2-cyclopropoxyphenyl)pyridin-3-yl)cyclopropoxy)methyl)phenyl)sulfonyl)-5-methyl-2,5-diazabicyclo[2.2.1]heptane] | 126 to 1000 | 
CCC(OCc1cc(Cl)ccc1Cl)c1cnccc1-c1ccccc1OC1CC1 (stereo not shown) [Compound I-779, 4-(2-cyclopropoxyphenyl)-3-(1-((2,5-dichlorobenzyl)oxy)propyl)pyridine] | 1260 to 10000 | 
CC(=O)N1C[C@@H]2C[C@H]1CN2S(=O)(=O)c1ccc(Cl)c(COC2(c3cnccc3-c3ccccc3OC3CC3)CC2)c1 [Compound I-780, 1-((1S,4S)-5-((4-chloro-3-((1-(4-(2-cyclopropoxyphenyl)pyridin-3-yl)cyclopropoxy)methyl)phenyl)sulfonyl)-2,5-diazabicyclo[2.2.1]heptan-2-yl)ethan-1-one] | 126 to 1000 | 
CC#CCn1c(N2CCC[C@@H](N)C2)nc2c1c(=O)n(Cc1nc(C)c3ccccc3n1)c(=O)n2C [Linagliptin, linagliptin, reference compound] |  | Liver weight ([2]; vehicle WD 2.13 ± 0.14): 1.77 ± 0.11* g; 4-h fasted insulin ([2]; vehicle WD 2.3 ± 0.3): 1.4 ± 0.2** ng/mL; Hepatic cholesterol ([2]; vehicle WD 8.56 ± 0.25): 10.17 ± 0.21*** mg/g; Hepatic triglycerides ([2]; vehicle WD 145.40 ± 14.80): 117.90 ± 6.76 mg/g; 4-h fasted glucose ([2]; vehicle WD 239 ± 13): 185 ± 6** mg/dL
N[C@@H](CC(=O)N1CCn2c(nnc2C(F)(F)F)C1)Cc1cc(F)c(F)cc1F [sitagliptin] |  | DSS-induced colonic damage ([3]; 1.5% DSS in drinking water, sitagliptin 3.6 g/L in drinking water (~800 mg/kg/day)): partially abrogated; disease activity score (DAI) ([3]; Day 8, 1.5% DSS, sitagliptin ~800 mg/kg/day in drinking water, vehicle/DSS 5.6, FIG. 2): 3.0; colon length ([3]; Day 8, 1.5% DSS, sitagliptin ~800 mg/kg/day, mean±SEM, vehicle/DSS 4.7±0.1, FIG. 3): 5.6±0.2 cm

Further lines, with some results ahead:

EC50 (human TGR5) [nM] | SMILES | also measured
< 100 | O=S(=O)(NCC(F)(F)F)c1ccc(Cl)c(COC2(c3cnccc3-c3ccccc3OC3CC3)CC2)c1 [Compound I-772, 4-chloro-3-((1-(4-(2-cyclopropoxyphenyl)pyridin-3-yl)cyclopropoxy)methyl)-N-(2,2,2-trifluoroethyl)benzenesulfonamide] | 
126 to 1000 | Cc1ccccc1-c1ccncc1C1(OCc2cc(Cl)ccc2Cl)CC1 [Compound I-773, 3-(1-((2,5-dichlorobenzyl)oxy)cyclopropyl)-4-(o-tolyl)pyridine] | 
126 to 1000 | COc1cc(C)ccc1-c1ccncc1C1(OCc2cc(Cl)ccc2Cl)CC1 [Compound I-774, 3-(1-((2,5-dichlorobenzyl)oxy)cyclopropyl)-4-(2-methoxy-4-methylphenyl)pyridine] | 
126 to 1000 | O=C(NCCCCNS(=O)(=O)c1ccc(Cl)c(COC2(c3c[n+]([O-])ccc3-c3ccccc3OC3CC3)CC2)c1)[C@@H](O)[C@@H](O)[C@H](O)[C@@H](O)CO [Compound I-775, 3-(1-((2-chloro-5-(N-(4-((2S,3S,4R,5S)-2,3,4,5,6-pentahydroxyhexanamido)butyl)sulfamoyl)benzyl)oxy)cyclopropyl)-4-(2-cyclopropoxyphenyl)pyridine 1-oxide] | 
< 100 | CN(CCCCNC(=O)N[C@H](CO)[C@@H](O)[C@H](O)[C@H](O)CO)S(=O)(=O)c1ccc(Cl)c(COC2(c3cnccc3-c3ccccc3OC3CC3)CC2)c1 [Compound I-778] | 

Source: US12084472B2 (Ardelyx, Inc., priority 2015, dated 2024)
